These results are taken from patent US6716846B2, “High affinity ligands for nociceptin receptor ORL-1” (Schering Corporation, priority 1998, dated 2004).

The experiment deals with human ORL-1 receptor (Homo sapiens, UniProt P41146). The experiment can be described thus: Agonist activity: stimulation of [35S]-GTPγS binding. It is filed as biochemical. As to conditions: compound at 100 nM. (In general: GTPγS resists hydrolysis and so accumulates on activated G proteins.)
human ORL-1 receptor, sequence (P41146 whole entry): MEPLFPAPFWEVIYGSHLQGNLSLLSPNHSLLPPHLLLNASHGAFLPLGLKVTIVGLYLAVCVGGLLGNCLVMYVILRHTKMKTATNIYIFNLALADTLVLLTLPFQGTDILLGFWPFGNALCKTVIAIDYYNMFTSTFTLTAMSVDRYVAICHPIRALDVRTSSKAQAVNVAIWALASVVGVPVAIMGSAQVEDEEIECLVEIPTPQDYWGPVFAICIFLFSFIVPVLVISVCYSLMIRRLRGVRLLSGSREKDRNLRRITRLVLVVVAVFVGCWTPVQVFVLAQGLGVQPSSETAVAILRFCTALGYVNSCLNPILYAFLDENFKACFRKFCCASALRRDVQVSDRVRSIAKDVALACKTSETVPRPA

In the case of `CNC(=O)NC1(c2ccccc2)CCN(C(c2ccccc2Cl)c2ccccc2Cl)CC1`, the activation at 0.1 µM was determined as 102%.
